Biological target: T1, GPR158 (Homo sapiens, UniProt Q5T848)
T1 sequence (Q5T848 24-1215): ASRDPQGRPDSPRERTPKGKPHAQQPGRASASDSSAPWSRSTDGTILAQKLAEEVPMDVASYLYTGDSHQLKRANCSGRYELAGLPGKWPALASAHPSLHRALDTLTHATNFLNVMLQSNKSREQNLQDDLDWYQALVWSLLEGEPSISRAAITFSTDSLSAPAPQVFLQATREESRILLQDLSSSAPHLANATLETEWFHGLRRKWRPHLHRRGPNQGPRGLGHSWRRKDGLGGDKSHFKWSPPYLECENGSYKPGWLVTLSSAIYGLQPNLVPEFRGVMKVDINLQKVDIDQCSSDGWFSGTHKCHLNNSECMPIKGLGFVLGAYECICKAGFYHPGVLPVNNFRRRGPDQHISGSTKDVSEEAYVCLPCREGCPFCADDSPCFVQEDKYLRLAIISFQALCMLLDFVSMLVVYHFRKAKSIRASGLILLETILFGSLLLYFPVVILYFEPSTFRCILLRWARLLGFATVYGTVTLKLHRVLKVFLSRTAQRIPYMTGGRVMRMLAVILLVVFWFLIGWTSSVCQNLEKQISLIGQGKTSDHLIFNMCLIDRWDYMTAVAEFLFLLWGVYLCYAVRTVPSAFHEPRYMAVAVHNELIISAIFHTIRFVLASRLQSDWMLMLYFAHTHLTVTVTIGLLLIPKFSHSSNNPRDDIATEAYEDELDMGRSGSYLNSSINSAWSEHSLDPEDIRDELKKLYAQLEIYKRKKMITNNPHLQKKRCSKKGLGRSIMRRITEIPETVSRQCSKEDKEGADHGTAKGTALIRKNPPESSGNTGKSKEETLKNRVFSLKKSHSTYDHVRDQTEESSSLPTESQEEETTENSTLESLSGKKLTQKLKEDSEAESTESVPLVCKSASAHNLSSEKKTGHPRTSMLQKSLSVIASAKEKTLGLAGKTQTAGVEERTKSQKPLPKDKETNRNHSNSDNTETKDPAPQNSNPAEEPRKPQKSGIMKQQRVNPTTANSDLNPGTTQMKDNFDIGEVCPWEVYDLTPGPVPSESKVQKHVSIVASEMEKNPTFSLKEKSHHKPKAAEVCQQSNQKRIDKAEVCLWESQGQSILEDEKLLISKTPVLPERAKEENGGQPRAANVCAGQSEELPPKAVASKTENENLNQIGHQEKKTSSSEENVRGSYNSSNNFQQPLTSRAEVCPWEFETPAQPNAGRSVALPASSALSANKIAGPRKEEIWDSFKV
Assay: Radioligand competition binding assay vs ^3H-glycine
Parameters: expressed in transfected cells; host or cells: HEK293FT
Settings: for IC50: membranes from HEK293 cells expressing GPR158, 4 experiments, mean±s.e.m., read-out: IC50 (displacement of ^3H-glycine)
Protocol: FIG. 8. Radioligand competition binding assay comparing binding of glycine and taurine to GPR158 Membranes from HEK293 cells expressing GPR158 were first incubated with ^3H-Glycine setting binding to 100% and then exposed to increasing concentrations of cold glycine (open circles) or cold taurine (circles with angled-line fill). Data shown are from 4 independent experiments, mean±s.e.m.
Next, the inventors performed radioligand binding assays examining binding of [^3H]-labeled glycine to HEK293 cells expressing GPR158 (FIG. 7A). […] The inventors have then isolated cellular membranes and conducted classical radioligand titration experiments (FIG. 9D). The inventors detected saturable [^3H]-glycine binding to membranes containing GPR158 is substantial excess over linear non-specific binding to membranes devoid of GPR158 (FIG. 9E). Scatchard analysis (FIG. 9F) estimated Kd of GPR158 for glycine to be ~3 μM. The inventors further performed binding competition experiments directly comparing the ability of glycine and taurine to displace [^3H]-labeled glycine bound to GPR158 (FIG. 8).
The functional data shown represent the average±SEM of 3-9 individual experiments each performed in triplicate or indicated in each figure and expressed as means±standard error means (s.e.m). For cAMP assays, cells transfected with empty vector were used as control and one-way ANOVA test was performed. For the GAP assay, cells with the same transfection conditions were compared on their treatment and two-way ANOVA test was performed. The non-linear regression curve was used to fit on the dose response curve giving the IC50 value. For the flow cytometry and radioligand binding assays cells transfected with empty vector were used as control and two-way ANOVA test was performed. For the radioligand competition assay, dissociation-One phase exponential decay was used to fit on data and give the Ki value. For the ITC dose response curve, the non-linear regression curve was used to fit on the curve. […] For the electrophysiology experiments changes was assessed in nonparametric t-test; Wilcoxon test. […]

| IC50 [µM] | affinity of taurine relative to glycine (competition binding IC50 comparison) | Structure (SMILES) |
| --- | --- | --- |
| ~3 |  | NCC(=O)O [glycine] |
| ~6 | two fold lower affinity | NCCS(=O)(=O)O [taurine, 2-aminoethanesulfonic acid] |

— patent US20260376293A1, “METHODS FOR STUDYING GPR158 PHARMACOLOGY AND IDENTIFICATION OF ITS LIGANDS” (UNIVERSITY OF FLORIDA RESEARCH FOUNDATION, INCORPORATED, priority 2022, published 2026)
